These results are taken from patent US11570987B2, “Pesticidal compounds and methods of use” (New York University, priority 2019, dated 2023).

One series has as its system rats. Briefly: Acute oral toxicity, Fixed Dose Procedure (OECD Guideline 420). In kind it is in vivo. Conditions: for clinical symptoms: 5 animals; for clinical outcome of the animal in the pilot experiment: single animal. The protocol: (§1) Fixed Dose Procedure (OECD Guideline 420):
(§2) (RS)-MFTE and (RS)-PFTE were test under OECD, Test No. 420: Acute Oral Toxicity—Fixed Dose Procedure, OECD Guidelines for the Testing of Chemicals, Section 4, OECD Publishing, Paris (2002), which is hereby incorporated by reference in its entirety.
(§3) Groups of five young adult animals (rats) of one sex in a stepwise procedure using the fixed doses of 5, 50, 300 and 2000 mg/kg in the main study as shown in FIG. 12B. Most tests are likely to be completed with either one or two sighting study steps and one main study step, thus using between 5 and 7 animals. Up to 5 animals are used in a limit test.

Assay in series [1]: as above
Format: in vivo, rats. The note with it: in vivo; rat, acute oral. As for the experimental part: as §1, §2, §3

Series [2] deals with Drosophila melanogaster. The series is described as follows: Residual exposure knockdown bioassay on female fruit flies. Format: in vivo. The note with it: for speed of action (lethality) of enantiomers and racemate, in words: fruit flies, different dosages (FIG. 9, FIG. 10).
For series [3], the system named is Drosophila melanogaster. The series is described as above. Format: in vivo. The note with it: for KT50 against female Drosophila, comparison in words: dosage 1.06*10^−1 g/m^2, FIG. 8; for Drosophila knockdown times, comparison in words: Example 5, FIG. 5; for observed symptoms of exposed flies: fruit flies; for KT50 (median knockdown time): female Drosophila melanogaster, 2.0±0.1 mg, logistic regression of knockdown-time curves. From the text:
Each symbol of FIGS. 2A-C corresponds to one female. Dashed lines indicate logistic regression of knockdown-time curves. The median knockdown time for each curve is denoted by its intersection with the horizontal KT50 marker. FIG. 2D illustrates comparison of the knockdown speeds (1/KT50) relative to DDT I. Error bars represent 95% confidence intervals (CI). Values with the same letter have overlapping 95% Cls and differences are considered insignificant. Inset: Photo of a typical female fly.
Female Drosophila melanogaster were exposed to 2.0±0.1 mg of DFDT, MFDT and DDT separately, in their crystalline and amorphous forms. The insects were monitored with a video camera until the entire population ceased to move. The videos then were analyzed to determine the knockdown times—a proxy for lethality—for each individual insect (Videos S1-S5). […] KT50 values, the times required for death of 50% of the insects, are the standard for assessing insecticide lethality (the lifetimes of individual insects differ because of the random nature of their contact with insecticide surfaces and varied susceptibility of a population). Here, the KT50 values were calculated by logistic regression of knockdown-time curves. […] Knockdown speeds, reciprocals of KT50 values, decreased in inverse order (FIG. 2d). The amorphous forms are always faster than their respective crystalline counterparts, with a-DFDT the fastest. […] Overall, the lethalities of the different solid forms of a given compound, as deduced from their knockdown speeds, were inversely correlated with their thermodynamic stability.
The relationships between functional groups that are directly attached to the central carbon atom and Drosophila knockdown times are shown in FIG. 6. […] Physical state of the compound at room temperature, and the median knockdown time (KT50) against female Drosophila are denoted below each compound. The dosage for the residual bioassay was 1.06*10^−1 g/m^2.
Residual action, which refers to the length of time a compound or composition may exist in a particular environment and remain effective, is a good proxy for the insecticidal activity of a compound. Each crystalline form was ground to a particle size similar to that of the liquid particles prepared by fine mist spraying. Lethality measurements were performed in duplicate for each solid-state form, each accompanied by two controls (no insecticide). Each microcrystalline form was added to a 10.0 cm diameter polystyrene petri dish (2.0 mg per dish), which was subsequently shaken to disperse the microcrystals throughout the petri dish. Amorphous forms were prepared by fine mist spraying a stock solution containing 70.0 mg of the respective insecticide in 10.0 mL hexane onto the top and bottom of 10.0 cm diameter polystyrene petri dishes (two sprays=0.280 mL) and allowing the hexane to evaporate at room temperature, resulting in 2.0 mg of liquid insecticide in each petri dish. 25 female adults Drosophila were sedated with carbon dioxide and flies were transferred to each petri dish. The top of the dish was then placed over the bottom and the motion of the mosquitos or fruit flies was recorded with a video camera (Sony HDR-CX455). The knockdown time was measured for each individual, with knockdown associated with an insect laying on the bottom surface of the petri dish in a supine position without moving from its original position after 10 seconds.

Series [4] has as its system Anopheles quadrimaculatus. The series is described as follows: Knockdown bioassay on female Anopheles mosquitoes in coated petri dishes. In kind it is in vivo. Conditions: for knockdown speed, times faster than a-DDT: Anopheles and Aedes mosquitoes (FIG. 3F); for KT50: female Anopheles, 1.0±0.1 mg amorphous form in petri dish. An excerpt: (§4) Each symbol corresponds to one female. Dashed lines indicate logistic regression of knockdown-time curves. The median knockdown time for each curve is denoted by its intersection with the horizontal KT50 marker. FIG. 3F illustrates the relative knockdown speeds of amorphs. Error bars represent 95% confidence intervals (CI). Values with the same letter have overlapping 95% Cls and differences are considered insignificant. Insets: Photos of typical Anopheles and Aedes mosquito females.
(§5) Female Anopheles and Aedes mosquitoes exposed to 1.0±0.1 mg of various crystalline forms followed the same knockdown trend as Drosophila, see Example 2, with KT50 values decreasing in the order DDT-I>(RS)-MFDT-I>DFDT-I>DFDT-II (FIGS. 3A and 3B). […] Female mosquitoes were introduced into petri dishes coated with 1.0±0.1 mg of the amorphous forms, and their motions recorded (Videos S8-S10). KT50 values for a-DFDT and a-(RS)-MFDT against Anopheles were 29 and 39 minutes, and against Aedes were 30 and 40 minutes, respectively (FIGS. 3C and 3D). Corresponding KT50 values for a-DDT were much larger (120 and 112 minutes). Accordingly, the knockdown speeds for a-DFDT and a-(RS)-MFDT are 4 and 3 times faster than a-DDT, respectively (FIG. 3F).

Series [5] is described as follows: Stability of amorphous forms at room temperature. In kind it is physicochemical. An excerpt:
DFDT and MFDT were synthesized from trichloroacetate and para-fluorobenzaldehyde to give 1-(4-fluorophenyl)-2,2,2-trichloroethanol. Subsequent reaction with fluorobenzene or chlorobenzene afforded DFDT and MFDT, respectively. Two polymorphic crystalline forms of DFDT (DFDT-I, -II) and three polymorphic forms of racemic MFDT ((RS)-MFDT-I, -II, -III) were discovered. DFDT-I single crystals could be obtained from a variety of solvents and DFDT-II single crystals from diethyl ether. (RS)-MFDT-I could be crystallized from a variety of solvents. The (R)- and (S)-MFDT enantiomers were resolved by chromatography on a chiral stationary phase, and single crystals were grown from a variety of solvents. Curiously, single crystals of (RS)-MFDT-II and -III were obtained by crystallization from the melt at >30° C. and 25° C., respectively, using seed crystals of either the R or S isomers. These crystalline forms, six total, were characterized by single crystal X-ray diffraction (FIG. 1). […] The Tm of the enantiomorphs was 47° C. Amorphous DFDT (a-DFDT), prepared by supercooling melts or fine mist spraying of solutions, afforded broad X-ray scattering halos (FIG. 1H) and was stable for 25 days at room temperature. Amorphous resolved and racemic MFDT (a-(R)- and a-(S)-MFDT, and a-(RS)-MFDT, respectively; FIG. 1H) were stable for 10 days at room temperature. These observations contrast with a-DDT, which transformed to crystalline DDT Form I within 5 hours at room temperature.

The subject of another series is Aedes aegypti. The series is described as follows: Knockdown bioassay on female Aedes mosquitoes in coated petri dishes. In kind it is in vivo. The note with it: 1.0±0.1 mg amorphous form in petri dish.
Description: as §4, §5

Bounds are passed on as bounds.

Broadly, the LD50 is the dose expected to kill half of the subjects tested. Read a high LD50 as lower toxicity. For the compound `OC(c1ccc(F)cc1)C(Cl)(Cl)Cl` (racemic) [(RS)-MFTE, 1-(4-fluorophenyl)-2,2,2-trichloro-ethanol], in the series on rats (300 mg/kg b.w.), the necropsy findings entry was “no relevant changes were noted except for the spleen” and the clinical symptoms result is “only mild symptoms (underactivity)”. Besides, in the series on rats (2000 mg/kg b.w.), the necropsy findings entry is on record as “changes were seen mainly in the gastrointestinal tract” and the “clinical outcome of the animal in the pilot experiment” value was “had to be euthanized 1 day after application”. In series [1], this compound showed an LD50 of 300 to 2000 mg/kg. Moreover, the “speed of action (lethality) of enantiomers and racemate, in words” value (“speed of action (lethality) … in words” below) in the series on Drosophila melanogaster [2] is “lies in between of (R) and (S)-MFTE”. The “KT50 against female Drosophila, comparison in words” value (“KT50 against female Drosophila” below) in the series with Drosophila melanogaster [3] is “comparable to that of crystalline deltamethrin Form I”.
For `OC(c1c(F)c(F)c(F)c(F)c1F)C(Cl)(Cl)Cl` (racemic) [(RS)-PFTE, 1-perfluorophenyl-2,2,2-trichloro-ethanol], in the series with rats (300 mg/kg b.w.), the necropsy findings result is reported as “no abnormal findings during necropsy” and the clinical symptoms entry is “no clinical symptoms except for soft feces”. For the same compound, in the series on rats (2000 mg/kg b.w.), the necropsy findings result was “changes were seen mainly in the gastrointestinal tract” and the “clinical outcome of the animal in the pilot experiment” value is “had to be euthanized on day 1 approx. 3 h after application”. This compound gave a median lethal dose (LD50) in series [1] of 300 to 2000 mg/kg. Also, in the series on Drosophila melanogaster [3], the “Drosophila knockdown times, comparison in words” value is recorded as “smaller than amorphous DFDT” and the “KT50 against female Drosophila” value was “comparable to that of crystalline deltamethrin Form I”.
In the case of `Fc1ccc(C(c2ccc(Cl)cc2)C(Cl)(Cl)Cl)cc1` (racemic) [a-(RS)-MFDT, 1,1,1-trichloro-2,2-(4-chlorophenyl)-(4-fluorophenyl)-ethane], in series [4], the “knockdown speed, times faster than a-DDT” value was 3 times and the KT50 was 39 min. Moreover, the “time the amorphous form was stable” value in series [5] (room temperature) was determined as 10 days. The KT50 in the series with Aedes aegypti came out at 40 min.
Regarding `O[C@H](c1ccc(F)cc1)C(Cl)(Cl)Cl` [(R)-MFTE, (R)-1-(4-fluorophenyl)-2,2,2-trichloro-ethanol], in the series on Drosophila melanogaster [2] (dosage above 5.30*10^−3/m^2), the “speed of action against deltamethrin Form I, in words” value is recorded as “even faster in action than deltamethrin Form I”. The “speed of action (lethality) … in words” value with Drosophila melanogaster [2] is on record as “always faster in action than (S)-MFTE”.
As to `O[C@H](c1c(F)c(F)c(F)c(F)c1F)C(Cl)(Cl)Cl` [(R)-PFTE, (R)-1-perfluorophenyl-2,2,2-trichloro-ethanol], the “speed of action against (RS)-PFTE, in words” value in the series on Drosophila melanogaster [2] (dosage below 1.06*10^−1/m^2) is “faster in action than (RS)-PFTE”. In the series on Drosophila melanogaster [2], the “speed of action (lethality) … in words” value is “always faster in action than (S)-PFTE”. For the same compound, the “speed of action against deltamethrin Form I, in words” value with Drosophila melanogaster [2] (high dosage 1.06*10^−1/m^2 and above) was “slower in action than deltamethrin Form I”. Also, the “speed of action against deltamethrin, in words” value in the series with Drosophila melanogaster [2] (low dosage 5.30*10^−3/m^2) is “faster in action than deltamethrin”.
As for `Clc1ccc(C(c2ccc(Cl)cc2)C(Cl)(Cl)Cl)cc1` [DDT, 1,1,1-trichloro-2,2-bis(4-chlorophenyl)ethane, reference compound], in the series on Drosophila melanogaster [3], the “KT50 against female Drosophila” value is recorded as “much larger”; the “observed symptoms of exposed flies” value is “induced hyperactivity followed by paralysis, and then death”.
`Clc1ccc(C(c2ccc(Cl)cc2)C(Cl)(Cl)Cl)cc1` [DDT-I, 1,1,1-trichloro-2,2-bis(4-chlorophenyl)ethane, reference compound]: the “KT50 (median knockdown time)” value in the series with Drosophila melanogaster [3] is 261 min.
Turning to `Fc1ccc(C(c2ccc(F)cc2)C(Cl)(Cl)Cl)cc1` [DFDT, reference compound], in the series with Drosophila melanogaster [3], the “KT50 against female Drosophila” value is recorded as “much larger”; the “observed symptoms of exposed flies” value is “induced hyperactivity followed by paralysis, and then death”.
Regarding `Fc1ccc(C(c2ccc(Cl)cc2)C(Cl)(Cl)Cl)cc1` (stereo not drawn) [MFDT, 1,1,1-trichloro-2,2-(4-chlorophenyl)-(4-fluorophenyl)-ethane], in the series with Drosophila melanogaster [3], the “observed symptoms of exposed flies” value is “induced hyperactivity followed by paralysis, and then death”.
As for `CC(O)(c1c(F)c(F)c(F)c(F)c1F)C(Cl)(Cl)Cl` (stereo not drawn) [PFTP, 2-(perfluorophenyl)-1,1,1-trichloro-propan-2-ol], the “KT50 against female Drosophila” value in the series with Drosophila melanogaster [3] was “comparable to that of crystalline deltamethrin Form I”.
In the case of `OC(c1ccc(C(F)(F)F)cc1)C(Cl)(Cl)Cl` (stereo not drawn) [TFMTE, 1-(4-(trifluoromethyl)phenyl)-2,2,2-trichloro-ethanol], in the series on Drosophila melanogaster [3], the “Drosophila knockdown times, comparison in words” value was “faster than DDT Form I, but not as fast as PFTE”.
On to `Fc1ccc(C(c2ccc(Cl)cc2)C(Cl)(Cl)Cl)cc1` [a-(R)-MFDT, 1,1,1-trichloro-2,2-(4-chlorophenyl)-(4-fluorophenyl)-ethane], for which, in series [5] (room temperature), the “time the amorphous form was stable” value was found to be 10 days.
Take `Clc1ccc(C(c2ccc(Cl)cc2)C(Cl)(Cl)Cl)cc1` [a-DDT, 1,1,1-trichloro-2,2-bis(4-chlorophenyl)ethane]: the values for the KT50 (in series [4]; in the series with Aedes aegypti) were 120 min and 112 min, respectively. Also, the “time to transformation to crystalline DDT Form I” value in series [5] (room temperature) was at most 5 h.
Take `Fc1ccc(C(c2ccc(F)cc2)C(Cl)(Cl)Cl)cc1` [a-DFDT]: in series [4], the “knockdown speed, times faster than a-DDT” value came out at 4 times and the KT50 was 29 min. For the same compound, in series [5] (addition of 10 wt % PEG 100 emulsifier), the “time the amorphous form is stable” value is “at least 120 days”. The “time the amorphous form was stable” value in series [5] (room temperature) was 25 days. In addition, in the series with Aedes aegypti, the KT50 was 30 min. Moreover, in the series on Drosophila melanogaster [3], the “KT50 (median knockdown time)” value amounted to 54 min.
